In brackets after ≈: the same amount, converted by molar mass.
Assays:
Type in all cases: functional
Candida albicans [1] = assay: Antifungal activity against Candida albicans SC5314 assessed as inhibition of fungal growth by CLSI M27-A3 guidelines based method
Candida albicans [2] = assay: Antifungal activity against Candida albicans GIM 2.194 assessed as inhibition of fungal growth by CLSI M27-A3 guidelines based method
Candida tropicalis = assay: Antifungal activity against Candida tropicalis GIM 2.183 assessed as inhibition of fungal growth by CLSI M27-A3 guidelines based method
Candida parapsilosis = assay: Antifungal activity against Candida parapsilosis GIM 2.190 assessed as inhibition of fungal growth by CLSI M27-A3 guidelines based method; conditions: Lodderomyces parapsilosis
Nakaseomyces glabratus = assay: Antifungal activity against Candida glabrata assessed as inhibition of fungal growth by CLSI M27-A3 guidelines based method
Pichia kudriavzevii = assay: Antifungal activity against Candida krusei GIM 2.1 assessed as inhibition of fungal growth by CLSI M27-A3 guidelines based method
Cryptococcus neoformans = assay: Antifungal activity against Cryptococcus neoformans CGMCC 2.3161 assessed as inhibition of fungal growth by CLSI M27-A3 guidelines based method

MIC80 (Candida albicans [1]) | MIC80 (Candida albicans [2]) | MIC80 (Candida tropicalis) | MIC80 (Candida parapsilosis) | MIC80 (Nakaseomyces glabratus) | MIC80 (Pichia kudriavzevii) | MIC80 (Cryptococcus neoformans) | SMILES
0.1 µg/mL (≈ 0.19 µM) | 0.025 µg/mL (≈ 0.0475 µM) | 0.05 µg/mL (≈ 0.095 µM) | 0.1 µg/mL (≈ 0.19 µM) | 0.2 µg/mL (≈ 0.38 µM) | 0.2 µg/mL (≈ 0.38 µM) | 0.05 µg/mL (≈ 0.095 µM) | CN(Cc1ccc(C#Cc2ccc(C(F)(F)F)cc2)cc1)CC(O)(Cn1cncn1)c1ccc(F)cc1F (stereo unspecified)
0.013 µg/mL (≈ 0.0283 µM) | 0.025 µg/mL (≈ 0.0544 µM) | 0.013 µg/mL (≈ 0.0283 µM) | 0.05 µg/mL (≈ 0.109 µM) | 0.8 µg/mL (≈ 1.74 µM) | 0.2 µg/mL (≈ 0.435 µM) | 0.05 µg/mL (≈ 0.109 µM) | CN(Cc1ccc(C#Cc2cccnc2)cc1)CC(O)(Cn1cncn1)c1ccc(F)cc1F (stereo unspecified)
0.013 µg/mL (≈ 0.0264 µM) | 0.006 µg/mL (≈ 0.0122 µM) | 0.013 µg/mL (≈ 0.0264 µM) | 0.006 µg/mL (≈ 0.0122 µM) | 0.8 µg/mL (≈ 1.62 µM) | 0.03 µg/mL (≈ 0.0609 µM) | 0.013 µg/mL (≈ 0.0264 µM) | CN(Cc1ccc(C#Cc2ccccc2Cl)cc1)CC(O)(Cn1cncn1)c1ccc(F)cc1F (stereo unspecified)
0.013 µg/mL (≈ 0.0269 µM) | 0.006 µg/mL (≈ 0.0124 µM) | 0.013 µg/mL (≈ 0.0269 µM) | 0.006 µg/mL (≈ 0.0124 µM) | 0.1 µg/mL (≈ 0.207 µM) | 0.1 µg/mL (≈ 0.207 µM) | 0.05 µg/mL (≈ 0.103 µM) | CN(Cc1ccc(C#Cc2ccc(C#N)cc2)cc1)CC(O)(Cn1cncn1)c1ccc(F)cc1F (stereo unspecified)
0.013 µg/mL (≈ 0.0275 µM) | 0.006 µg/mL (≈ 0.0127 µM) | 0.006 µg/mL (≈ 0.0127 µM) | 0.013 µg/mL (≈ 0.0275 µM) | 0.1 µg/mL (≈ 0.212 µM) | 0.05 µg/mL (≈ 0.106 µM) | 0.025 µg/mL (≈ 0.0529 µM) | Cc1ccccc1C#Cc1ccc(CN(C)CC(O)(Cn2cncn2)c2ccc(F)cc2F)cc1 (stereo unspecified)
0.006 µg/mL (≈ 0.0108 µM) | 0.006 µg/mL (≈ 0.0108 µM) | 0.006 µg/mL (≈ 0.0108 µM) | 0.006 µg/mL (≈ 0.0108 µM) | 0.03 µg/mL (≈ 0.054 µM) | 0.03 µg/mL (≈ 0.054 µM) | 0.025 µg/mL (≈ 0.045 µM) | CN(Cc1ccc(C#Cc2ccc(Br)cc2F)cc1)CC(O)(Cn1cncn1)c1ccc(F)cc1F (stereo unspecified)
0.025 µg/mL (≈ 0.0465 µM) | 0.006 µg/mL (≈ 0.0112 µM) | 0.013 µg/mL (≈ 0.0242 µM) | 0.006 µg/mL (≈ 0.0112 µM) | 0.8 µg/mL (≈ 1.49 µM) | 0.2 µg/mL (≈ 0.372 µM) | 0.013 µg/mL (≈ 0.0242 µM) | CN(Cc1ccc(C#Cc2cccc(Br)c2)cc1)CC(O)(Cn1cncn1)c1ccc(F)cc1F (stereo unspecified)
0.006 µg/mL (≈ 0.0108 µM) | 0.006 µg/mL (≈ 0.0108 µM) | 0.006 µg/mL (≈ 0.0108 µM) | 0.006 µg/mL (≈ 0.0108 µM) | 0.03 µg/mL (≈ 0.054 µM) | 0.01 µg/mL (≈ 0.018 µM) | 0.025 µg/mL (≈ 0.045 µM) | CN(Cc1ccc(C#Cc2ccc(Br)c(F)c2)cc1)CC(O)(Cn1cncn1)c1ccc(F)cc1F (stereo unspecified)
0.006 µg/mL (≈ 0.0105 µM) | 0.006 µg/mL (≈ 0.0105 µM) | 0.006 µg/mL (≈ 0.0105 µM) | 0.006 µg/mL (≈ 0.0105 µM) | 0.03 µg/mL (≈ 0.0523 µM) | 0.03 µg/mL (≈ 0.0523 µM) | 0.025 µg/mL (≈ 0.0436 µM) | CN(Cc1ccc(C#Cc2cc(F)c(Br)cc2F)cc1)CC(O)(Cn1cncn1)c1ccc(F)cc1F (stereo unspecified)
0.006 µg/mL (≈ 0.0103 µM) | 0.006 µg/mL (≈ 0.0103 µM) | 0.013 µg/mL (≈ 0.0222 µM) | 0.006 µg/mL (≈ 0.0103 µM) | 0.01 µg/mL (≈ 0.0171 µM) | 0.03 µg/mL (≈ 0.0513 µM) | 0.013 µg/mL (≈ 0.0222 µM) | CN(Cc1ccc(C#Cc2ccc(I)cc2)cc1)CC(O)(Cn1cncn1)c1ccc(F)cc1F (stereo unspecified)
0.006 µg/mL (≈ 0.0115 µM) | 0.006 µg/mL (≈ 0.0115 µM) | 0.006 µg/mL (≈ 0.0115 µM) | 0.006 µg/mL (≈ 0.0115 µM) | 0.01 µg/mL (≈ 0.0192 µM) | 0.01 µg/mL (≈ 0.0192 µM) | 0.025 µg/mL (≈ 0.0479 µM) | CN(Cc1ccc(C#Cc2ccc([N+](=O)[O-])c(F)c2)cc1)CC(O)(Cn1cncn1)c1ccc(F)cc1F (stereo unspecified)
0.025 µg/mL (≈ 0.0543 µM) | 0.05 µg/mL (≈ 0.109 µM) | 0.025 µg/mL (≈ 0.0543 µM) | 0.025 µg/mL (≈ 0.0543 µM) | 3.2 µg/mL (≈ 6.95 µM) | 1.6 µg/mL (≈ 3.47 µM) | 0.8 µg/mL (≈ 1.74 µM) | CN(Cc1ccc(C#Cc2ncccn2)cc1)CC(O)(Cn1cncn1)c1ccc(F)cc1F (stereo unspecified)
0.025 µg/mL (≈ 0.0543 µM) | 0.05 µg/mL (≈ 0.109 µM) | 0.025 µg/mL (≈ 0.0543 µM) | 0.025 µg/mL (≈ 0.0543 µM) | 3.2 µg/mL (≈ 6.95 µM) | 0.8 µg/mL (≈ 1.74 µM) | 0.4 µg/mL (≈ 0.869 µM) | CN(Cc1ccc(C#Cc2cncnc2)cc1)CC(O)(Cn1cncn1)c1ccc(F)cc1F (stereo unspecified)
0.006 µg/mL (≈ 0.012 µM) | 0.006 µg/mL (≈ 0.012 µM) | 0.006 µg/mL (≈ 0.012 µM) | 0.006 µg/mL (≈ 0.012 µM) | 0.03 µg/mL (≈ 0.0599 µM) | 0.03 µg/mL (≈ 0.0599 µM) | 0.006 µg/mL (≈ 0.012 µM) | CC(=O)c1ccc(C#Cc2ccc(CN(C)CC(O)(Cn3cncn3)c3ccc(F)cc3F)cc2)cc1 (stereo unspecified)
0.006 µg/mL (≈ 0.0122 µM) | 0.013 µg/mL (≈ 0.0264 µM) | 0.013 µg/mL (≈ 0.0264 µM) | 0.006 µg/mL (≈ 0.0122 µM) | 0.05 µg/mL (≈ 0.101 µM) | 0.03 µg/mL (≈ 0.0609 µM) | 0.013 µg/mL (≈ 0.0264 µM) | CN(Cc1ccc(C#Cc2ccc(Cl)cc2)cc1)CC(O)(Cn1cncn1)c1ccc(F)cc1F (stereo unspecified)
0.013 µg/mL (≈ 0.0267 µM) | 0.013 µg/mL (≈ 0.0267 µM) | 0.013 µg/mL (≈ 0.0267 µM) | 0.013 µg/mL (≈ 0.0267 µM) | 0.1 µg/mL (≈ 0.206 µM) | 0.05 µg/mL (≈ 0.103 µM) | 0.05 µg/mL (≈ 0.103 µM) | CN(Cc1ccc(C#Cc2ccc(C=O)cc2)cc1)CC(O)(Cn1cncn1)c1ccc(F)cc1F (stereo unspecified)
0.006 µg/mL (≈ 0.0119 µM) | 0.006 µg/mL (≈ 0.0119 µM) | 0.006 µg/mL (≈ 0.0119 µM) | 0.006 µg/mL (≈ 0.0119 µM) | 0.03 µg/mL (≈ 0.0596 µM) | 0.03 µg/mL (≈ 0.0596 µM) | 0.013 µg/mL (≈ 0.0258 µM) | CN(Cc1ccc(C#Cc2ccc([N+](=O)[O-])cc2)cc1)CC(O)(Cn1cncn1)c1ccc(F)cc1F (stereo unspecified)
0.013 µg/mL (≈ 0.0267 µM) | 0.013 µg/mL (≈ 0.0267 µM) | 0.013 µg/mL (≈ 0.0267 µM) | 0.013 µg/mL (≈ 0.0267 µM) | 0.1 µg/mL (≈ 0.206 µM) | 0.05 µg/mL (≈ 0.103 µM) | 0.025 µg/mL (≈ 0.0514 µM) | CCc1ccc(C#Cc2ccc(CN(C)CC(O)(Cn3cncn3)c3ccc(F)cc3F)cc2)cc1 (stereo unspecified)

Reference: ChEMBL document CHEMBL6092180 (Eur J Med Chem, 2024)
